Values of other authors as cited in patent US20040254092A1 (priority 2003, published 2004).

Key:
[1] = test system: Type-B hepatitis surface antigen (HbsAg)
[2] = test system: Type-A flu virus
[3] = test system: Poliomyelitis virus type I (PVI); conditions: ozone density 0.13 mg/L, time 30 seconds
[4] = test system: Coliphage ms2
[5] = test system: SA-H and human-wheel virus type 2
[6] = test system: Coronaviridae
[7] = test system: HIV
[8] = test system: Mycoplasma, Chlamydia, and other pathogens

For `O=[O+][O-]` [Ozone, ozone], the Sterilizing efficiency [1] is given as 99.99%, the Sterilizing efficiency [2] is given as 99% and the Sterilizing efficiency [3] is given as 100%. For the same compound, the Sterilizing efficiency [4] was 98%, the Sterilizing efficiency [5] was 99.60% and the Sterilizing efficiency [6] was 100%. The Sterilizing efficiency [7] was 100% and the Sterilizing efficiency [8] was 99.85%.
